Measurements from ChEMBL document CHEMBL2412969, “Antihyperglycemic and antihyperlipidemic activities of 2-(4-[(2-hydroxybenzyl) amino]-phenyl amino-methyl)-phenol in STZ induced diabetic rats” (Eur J Med Chem, 2013).
The source made the active and inactive calls. No cut-off for these calls is given here.

Key:
[1] = system: Rattus norvegicus; experiment: Hypoglycemic activity in Wistar albino rat assessed as reduction of blood glucose level at 60 mg/kg, po after 2 hrs (reference value: 76.5 +/- 3.7 mg/dl); assay type: ADME, organism-based; set-up: dose 60 mg/kg, route oral; details: in vivo
[2] = system: Rattus norvegicus; experiment: Toxicity in Wistar albino rat assessed as increase of body weight at 30 mg/kg, po qd measured on day 30 (reference value: 8.82%); assay type: organism-based; set-up: dose 30 mg/kg, route oral; details: in vivo
[3] = system: Rattus norvegicus; experiment: Hepatoprotective activity in Wistar albino rat assessed as protection against streptozotocin-induced increase in AST, ALT and ALP level in serum at 30 mg/kg, po qd for 30 days; assay type: functional, organism-based; set-up: dose 30 mg/kg
[4] = system: Rattus norvegicus; experiment: Antihyperglycemic activity in Wistar albino rat streptozotocin-induced diabetic model assessed as reduction of blood glucose level at 20 mg/kg, po after 5 hrs (reference value: 372.2 +/- 16.6 mg/dl); assay type: functional
[5] = system: Rattus norvegicus; experiment: Antihyperglycemic activity in Wistar albino rat streptozotocin-induced diabetic model assessed as reduction of blood glucose level at 20 mg/kg, po after 3 hrs (reference value: 384.33 +/- 17.33 mg/dl); assay type: functional
[6] = system: Rattus norvegicus; experiment: Antihyperglycemic activity in Wistar albino rat streptozotocin-induced diabetic model assessed as reduction of blood glucose level at 20 mg/kg, po after 1 hr (reference value: 389.16 +/- 19 mg/dl); assay type: functional
[7] = system: Rattus norvegicus; experiment: Antiatherosclerosis activity in Wistar albino rat assessed as protection from atherogenicity at 30 mg/kg, po qd for 30 days relative to control; assay type: functional
[8] = system: Rattus norvegicus; experiment: Hypoglycemic activity in Wistar albino rat assessed as reduction of fasting blood glucose level at 30 mg/kg, po qd measured on day 15 (reference value: 82.66 +/- 6.05 mg/dl); assay type: ADME, organism-based; set-up: dose 30 mg/kg, route oral; details: in vivo
[9] = system: Rattus norvegicus; experiment: Antihyperglycemic activity in Wistar albino rat streptozotocin-induced diabetic model assessed as reduction of fasting blood glucose level at 30 mg/kg, po qd measured on day 1 (reference value: 416.4 +/- 24.2 mg/dl); assay type: functional
[10] = system: Rattus norvegicus; experiment: Antihyperlipidemic activity in Wistar albino rat streptozotocin-induced diabetic model assessed as reduction of serum VLDL-cholesterol level at 30 mg/kg, po qd for 30 days; assay type: functional, organism-based; set-up: dose 30 mg/kg
[11] = system: Rattus norvegicus; experiment: Antihyperglycemic activity in Wistar albino rat streptozotocin-induced diabetic model assessed as increase of body weight at 30 mg/kg, po qd measured on day 15 (reference value: -30.3%); assay type: functional
[12] = system: Rattus norvegicus; experiment: Hypoglycemic activity in Wistar albino rat assessed as reduction of fasting blood glucose level at 30 mg/kg, po qd measured on day 1 (reference value: 89 +/- 6.4 mg/dl); assay type: ADME, organism-based; set-up: dose 30 mg/kg, route oral; details: in vivo
[13] = system: Rattus norvegicus; experiment: Hypoglycemic activity in Wistar albino rat assessed as reduction of blood glucose level at 30 mg/kg, po after 2 hrs (reference value: 76.5 +/- 3.7 mg/dl); assay type: ADME, organism-based; set-up: dose 30 mg/kg, route oral; details: in vivo
[14] = system: Rattus norvegicus; experiment: Hypoglycemic activity in Wistar albino rat assessed as reduction of blood glucose level at 60 mg/kg, po after 1 hr (reference value: 71.26 +/- 4.3 mg/dl); assay type: ADME, organism-based; set-up: dose 60 mg/kg, route oral; details: in vivo
[15] = system: Rattus norvegicus; experiment: Antihyperglycemic activity in Wistar albino rat streptozotocin-induced diabetic model assessed as reduction of blood glucose level at 20 mg/kg, po after 2 hrs (reference value: 386.66 +/- 17.5 mg/dl); assay type: functional
[16] = system: Rattus norvegicus; experiment: Antihyperglycemic activity in Wistar albino rat streptozotocin-induced diabetic model assessed as reduction of blood glucose level at 30 mg/kg, po after 4 hrs (reference value: 373.5 +/- 15.6 mg/dl); assay type: functional
[17] = system: Rattus norvegicus; experiment: Antihyperglycemic activity in Wistar albino rat streptozotocin-induced diabetic model assessed as reduction of blood glucose level at 30 mg/kg, po after 2 hrs (reference value: 386.66 +/- 17.5 mg/dl); assay type: functional
[18] = system: Rattus norvegicus; experiment: Antihyperglycemic activity in Wistar albino rat streptozotocin-induced diabetic model assessed as reduction of blood glucose level at 20 mg/kg, po after 6 hrs (reference value: 372.5 +/- 15.6 mg/dl); assay type: functional
[19] = system: Rattus norvegicus; experiment: Renaltoxicity in Wistar albino rat assessed as creatinine level in blood at 30 mg/kg, po qd for 30 days; assay type: organism-based; set-up: dose 30 mg/kg, route oral; details: in vivo, 720 h
[20] = system: Rattus norvegicus; experiment: Antihyperglycemic activity in Wistar albino rat streptozotocin-induced diabetic model assessed as reduction of blood glucose level at 20 mg/kg, po after 4 hrs (reference value: 373.5 +/- 15.6 mg/dl); assay type: functional
[21] = system: Rattus norvegicus; experiment: Antihyperglycemic activity in glucose loaded Wistar albino rat streptozotocin-induced diabetic model assessed as reduction of blood glucose level at 30 mg/kg, po after 3 hrs by oral glucose tolerance test; assay type: functional; set-up: scale not given: the % may be the effect or the level left
[22] = system: Rattus norvegicus; experiment: Hypoglycemic activity in Wistar albino rat assessed as reduction of fasting blood glucose level at 30 mg/kg, po qd measured on day 30 (reference value: 94.8 +/- 10.4 mg/dl); assay type: ADME, organism-based; set-up: dose 30 mg/kg, route oral; details: in vivo
[23] = system: Rattus norvegicus; experiment: Antiatherosclerosis activity in Wistar albino rat streptozotocin-induced diabetic model assessed as protection from atherogenicity at 30 mg/kg, po qd for 30 days relative to control; assay type: functional
[24] = system: Rattus norvegicus; experiment: Antihyperglycemic activity in Wistar albino rat streptozotocin-induced diabetic model assessed as reduction of blood glucose level at 30 mg/kg, po after 6 hrs (reference value: 372.5 +/- 15.6 mg/dl); assay type: functional
[25] = system: Rattus norvegicus; experiment: Antihyperglycemic activity in Wistar albino rat streptozotocin-induced diabetic model assessed as reduction of blood glucose level at 60 mg/kg, po after 3 hrs (reference value: 384.33 +/- 17.33 mg/dl); assay type: functional
[26] = system: Rattus norvegicus; experiment: Antihyperglycemic activity in Wistar albino rat streptozotocin-induced diabetic model assessed as reduction of blood glucose level at 60 mg/kg, po after 1 hr (reference value: 389.16 +/- 19 mg/dl); assay type: functional
[27] = system: Rattus norvegicus; experiment: Antihyperlipidemic activity in Wistar albino rat streptozotocin-induced diabetic model assessed as reduction of serum triglyceride level at 30 mg/kg, po qd for 30 days; assay type: functional, organism-based; set-up: dose 30 mg/kg
[28] = system: Rattus norvegicus; experiment: Hypoglycemic activity in Wistar albino rat assessed as reduction of blood glucose level at 20 mg/kg, po after 2 hrs (reference value: 76.5 +/- 3.7 mg/dl); assay type: ADME, organism-based; set-up: dose 20 mg/kg, route oral; details: in vivo
[29] = system: Rattus norvegicus; experiment: Hypoglycemic activity in Wistar albino rat assessed as reduction of blood glucose level at 30 mg/kg, po after 3 hrs (reference value: 76.3 +/- 5.4 mg/dl); assay type: ADME, organism-based; set-up: dose 30 mg/kg, route oral; details: in vivo
[30] = system: Rattus norvegicus; experiment: Antihyperglycemic activity in Wistar albino rat streptozotocin-induced diabetic model assessed as reduction of blood glucose level at 60 mg/kg, po after 2 hrs (reference value: 386.66 +/- 17.5 mg/dl); assay type: functional
[31] = system: Rattus norvegicus; experiment: Hypoglycemic activity in Wistar albino rat assessed as reduction of blood glucose level at 60 mg/kg, po after 5 hrs (reference value: 73.8 +/- 4.5 mg/dl); assay type: ADME, organism-based; set-up: dose 60 mg/kg, route oral; details: in vivo
[32] = system: Rattus norvegicus; experiment: Antihyperglycemic activity in Wistar albino rat streptozotocin-induced diabetic model assessed as reduction of blood glucose level at 30 mg/kg, po after 5 hrs (reference value: 372.2 +/- 16.6 mg/dl); assay type: functional
[33] = system: Rattus norvegicus; experiment: Hypoglycemic activity in Wistar albino rat assessed as reduction of blood glucose level at 20 mg/kg, po after 1 hr (reference value: 71.26 +/- 4.3 mg/dl); assay type: ADME, organism-based; set-up: dose 20 mg/kg, route oral; details: in vivo
[34] = system: Rattus norvegicus; experiment: Antihyperglycemic activity in Wistar albino rat streptozotocin-induced diabetic model assessed as reduction of fasting blood glucose level at 30 mg/kg, po qd measured on day 30 relative to control; assay type: functional

- Activity [1]: 71.3 mg/dL
- Activity [8]: 80.66 mg/dL
- Activity [12]: 90.6 mg/dL
- Activity [13]: 73.66 mg/dL
- Activity [14]: 75.7 mg/dL
- Activity [22]: 98.67 mg/dL
- Activity [28]: 73.16 mg/dL
- Activity [29]: 74.16 mg/dL
- Activity [31]: 78 mg/dL
- Activity [33]: 74.12 mg/dL
Structure (SMILES): Oc1ccccc1CNc1ccc(NCc2ccccc2O)cc1
- Activity [2]: 2.94%
- Activity [3]: Active
- Activity [4]: 204.8 mg/dL
- Activity [5]: 301.3 mg/dL
- Activity [6]: 357.5 mg/dL
- Activity [7]: 70.1%
- Activity [9]: 333 mg/dL
- Activity [10]: Active
- Activity [11]: 8.57%
- Activity [15]: 312.83 mg/dL
- Activity [16]: 215.6 mg/dL
- Activity [17]: 252.1 mg/dL
- Activity [18]: 223.28 mg/dL
- Activity [19]: 0.37 mg/dL
- Activity [20]: 265.16 mg/dL
- Activity [21]: 56%
- Activity [23]: 66.8%
- Activity [24]: 102 mg/dL
- Activity [25]: 61.4 mg/dL
- Activity [26]: 233.16 mg/dL
- Activity [27]: Active
- Activity [30]: 109.5 mg/dL
- Activity [32]: 172.8 mg/dL
- Activity [34]: 113.5 mg/dL
